In brackets after ≈: the same amount, converted by molar mass.
Columns and labels:
Assay in all cases: MIC by agar dilution (NCCLS), 322 nosocomial Gram negative isolates, Athens 1998
Format in all cases: cell-based
Pseudomonas aeruginosa = settings: n = 57 isolates
Escherichia coli = settings: Escherichia coli; n = 57 isolates
Klebsiella pneumoniae = settings: Klebsiella pneumoniae; n = 56 isolates
Proteus mirabilis = settings: Proteus mirabilis; n = 57 isolates
Acinetobacter spp. = settings: Acinetobacter; n = 38 strains

CC(C)(O/N=C(\C(=O)N[C@@H]1C(=O)N2C(C(=O)[O-])=C(C[n+]3ccccc3)CS[C@H]12)c1csc(N)n1)C(=O)O [Ceftazidime]
MIC50 (Pseudomonas aeruginosa): 2 µg/mL (≈ 3.66 µM) | MIC90 (Pseudomonas aeruginosa): > 64 µg/mL | MIC50 (Escherichia coli): 0.125 µg/mL (≈ 0.229 µM) | MIC90 (Escherichia coli): 0.25 µg/mL (≈ 0.457 µM) | MIC50 (Klebsiella pneumoniae): 0.25 µg/mL (≈ 0.457 µM) | MIC90 (Klebsiella pneumoniae): > 64 µg/mL | MIC50 (Proteus mirabilis): 0.125 µg/mL (≈ 0.229 µM) | MIC90 (Proteus mirabilis): 8 µg/mL (≈ 14.6 µM) | MIC50 (Acinetobacter spp.): > 64 µg/mL | MIC90 (Acinetobacter spp.): > 64 µg/mL

Source: patent publication EP1561465A2, “Methods of use of fluoroquinolone compounds against bacteria” (LG Life Sciences, Ltd., priority 1999, dated 2001)
